Assays:
[1] = molecular target: T1, ATP-dependent translocase ABCB1 (Homo sapiens, UniProt P08183); test: Negative allosteric modulator activity at P-gp in human LCC6MDR cells overexpressing P-gp assessed as reversal of P-gp mediated paclitaxel resistance activity by measuring relative fold at 1 uM incubated for 5 days by MTS assay; format: cell-based; conditions: 120 h, time 5 day
[2] = molecular target: T1, ATP-dependent translocase ABCB1; test: Negative allosteric modulator activity at P-gp in human LCC6MDR cells assessed as increase in intracellular doxorubicin accumulation using doxorubicin as substrate incubated for 150 mins by microplate reader assay; format: cell-based; conditions: 2.5 h
[3] = molecular target: T1, ATP-dependent translocase ABCB1; test: Binding affinity to human P-glycoprotein expressed in LCC6MDR cells assessed as stabilization of protein by measuring fluorescence at 1 uM incubated for 1 hr by Western blotting analysis; format: cell-based
[4] = molecular target: T1, ATP-dependent translocase ABCB1; test: Binding affinity to P-glycoprotein in human LCC6MDR cells assessed as stabilization of protein by measuring fluorescence at 1 uM incubated for 1 hr by Western blotting analysis; format: cell-based
[5] = molecular target: T1, ATP-dependent translocase ABCB1; test: Binding affinity to human P-glycoprotein expressed in LCC6MDR cells assessed as stabilization of protein by measuring fluorescence at 0.1 to 1 uM by Western blotting analysis; format: cell-based; conditions: dose 0.1-1 µM
[6] = molecular target: T1, ATP-dependent translocase ABCB1; test: Displacement of FM-04 from human P-glycoprotein expressed in LCC6MDR cells at 1 uM by competitive binding assay; format: cell-based
[7] = molecular target: T2, ATP-dependent translocase ABCB1 (Mus musculus, UniProt P06795); test: Binding affinity to mouse P-glycoprotein expressed in Pichia pastoris assessed as stabilization of protein by measuring fluorescence at 1 uM by Western blotting analysis
T2 sequence (P06795 whole entry): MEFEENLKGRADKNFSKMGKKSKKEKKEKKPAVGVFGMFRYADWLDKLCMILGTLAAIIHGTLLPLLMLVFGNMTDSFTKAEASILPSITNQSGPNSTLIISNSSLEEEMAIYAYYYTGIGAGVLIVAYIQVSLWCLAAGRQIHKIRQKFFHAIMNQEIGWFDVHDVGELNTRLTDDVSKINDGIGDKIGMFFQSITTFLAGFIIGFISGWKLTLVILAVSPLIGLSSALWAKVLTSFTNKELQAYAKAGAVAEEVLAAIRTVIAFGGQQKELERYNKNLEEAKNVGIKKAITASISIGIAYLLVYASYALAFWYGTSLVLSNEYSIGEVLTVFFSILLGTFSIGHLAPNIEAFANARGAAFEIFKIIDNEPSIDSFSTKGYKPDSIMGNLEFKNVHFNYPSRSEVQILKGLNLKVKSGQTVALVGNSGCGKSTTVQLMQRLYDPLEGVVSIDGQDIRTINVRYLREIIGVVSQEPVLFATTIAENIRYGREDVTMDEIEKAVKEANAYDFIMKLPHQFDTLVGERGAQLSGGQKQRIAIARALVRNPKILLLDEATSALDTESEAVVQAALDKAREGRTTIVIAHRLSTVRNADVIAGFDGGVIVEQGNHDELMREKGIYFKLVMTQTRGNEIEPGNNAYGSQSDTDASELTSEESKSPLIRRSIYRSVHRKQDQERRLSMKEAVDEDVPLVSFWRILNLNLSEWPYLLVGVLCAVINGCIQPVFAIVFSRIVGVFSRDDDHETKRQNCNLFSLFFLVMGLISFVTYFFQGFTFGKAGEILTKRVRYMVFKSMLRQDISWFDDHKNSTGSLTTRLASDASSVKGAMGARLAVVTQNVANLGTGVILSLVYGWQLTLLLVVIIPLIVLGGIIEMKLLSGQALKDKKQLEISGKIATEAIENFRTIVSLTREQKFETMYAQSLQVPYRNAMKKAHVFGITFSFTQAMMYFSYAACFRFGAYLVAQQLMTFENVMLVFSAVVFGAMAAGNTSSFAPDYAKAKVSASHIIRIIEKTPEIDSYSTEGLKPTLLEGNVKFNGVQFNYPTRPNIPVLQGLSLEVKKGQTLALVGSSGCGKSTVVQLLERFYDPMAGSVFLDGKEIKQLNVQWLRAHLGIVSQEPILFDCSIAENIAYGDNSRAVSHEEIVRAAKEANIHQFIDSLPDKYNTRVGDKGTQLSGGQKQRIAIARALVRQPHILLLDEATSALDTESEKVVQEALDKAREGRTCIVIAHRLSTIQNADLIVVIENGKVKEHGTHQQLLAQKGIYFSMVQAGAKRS

[8] = molecular target: T2, ATP-dependent translocase ABCB1; test: Displacement of FM04 from mouse P-glycoprotein expressed in Pichia pastoris at 1 uM by competitive binding assay
[9] = molecular target: T2, ATP-dependent translocase ABCB1; test: Binding affinity to biotin-labeled mouse P-glycoprotein expressed in Pichia pastoris assessed as stabilization of protein by measuring fluorescence at 100 uM incubated for 2 hr by Streptavidin-HRP blotting assay
[10] = molecular target: T2, ATP-dependent translocase ABCB1; test: Binding affinity to mouse P-glycoprotein expressed in Pichia pastoris assessed as stabilization of protein by measuring fluorescence at 100 uM incubated for 2 hr by Streptavidin-HRP blotting assay
[11] = molecular target: T2, ATP-dependent translocase ABCB1; test: Binding affinity to mouse P-glycoprotein expressed in Pichia pastoris assessed as stabilization of protein by measuring fluorescence at 100 uM incubated for 2 hr by Streptavidin-pull down blotting assay
[12] = molecular target: T2, ATP-dependent translocase ABCB1; test: Binding affinity to mouse P-glycoprotein expressed in Pichia pastoris assessed as stabilization of protein by measuring fluorescence at 1000 uM incubated for 2 hr by Streptavidin-pull down blotting assay

T1 sequence (P08183 whole entry): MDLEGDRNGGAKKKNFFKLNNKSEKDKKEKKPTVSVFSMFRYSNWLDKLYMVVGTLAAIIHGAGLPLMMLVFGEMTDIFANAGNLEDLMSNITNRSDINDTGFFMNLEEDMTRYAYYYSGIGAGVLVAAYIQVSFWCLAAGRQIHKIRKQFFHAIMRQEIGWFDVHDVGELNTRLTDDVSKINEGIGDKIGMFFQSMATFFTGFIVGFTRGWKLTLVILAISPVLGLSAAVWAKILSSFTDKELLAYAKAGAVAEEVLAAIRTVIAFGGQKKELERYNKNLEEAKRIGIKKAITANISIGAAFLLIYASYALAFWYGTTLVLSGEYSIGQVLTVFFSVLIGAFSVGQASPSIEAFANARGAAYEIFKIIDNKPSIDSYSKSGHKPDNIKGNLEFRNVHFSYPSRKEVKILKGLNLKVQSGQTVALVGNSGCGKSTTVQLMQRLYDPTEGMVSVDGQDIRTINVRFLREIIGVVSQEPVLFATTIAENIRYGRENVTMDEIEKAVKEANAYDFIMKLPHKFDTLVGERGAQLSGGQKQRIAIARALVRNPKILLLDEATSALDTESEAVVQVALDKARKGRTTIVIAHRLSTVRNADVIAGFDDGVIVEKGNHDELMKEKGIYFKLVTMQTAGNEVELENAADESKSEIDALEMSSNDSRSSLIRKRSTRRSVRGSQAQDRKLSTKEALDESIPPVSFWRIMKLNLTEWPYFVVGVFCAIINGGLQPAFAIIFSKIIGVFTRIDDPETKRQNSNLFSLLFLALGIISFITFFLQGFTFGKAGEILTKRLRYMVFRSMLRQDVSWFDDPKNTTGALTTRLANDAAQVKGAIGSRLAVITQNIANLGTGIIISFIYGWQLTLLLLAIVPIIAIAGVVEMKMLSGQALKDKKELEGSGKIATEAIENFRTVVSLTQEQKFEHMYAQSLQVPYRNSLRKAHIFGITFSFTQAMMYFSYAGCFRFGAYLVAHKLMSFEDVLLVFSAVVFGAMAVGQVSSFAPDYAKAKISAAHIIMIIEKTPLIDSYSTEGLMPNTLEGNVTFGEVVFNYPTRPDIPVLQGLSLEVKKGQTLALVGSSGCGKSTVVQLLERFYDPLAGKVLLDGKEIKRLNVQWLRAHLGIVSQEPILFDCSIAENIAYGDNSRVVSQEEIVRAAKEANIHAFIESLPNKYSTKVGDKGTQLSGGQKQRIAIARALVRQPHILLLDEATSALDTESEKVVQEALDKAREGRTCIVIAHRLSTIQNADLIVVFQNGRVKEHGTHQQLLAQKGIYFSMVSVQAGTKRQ

SMILES | fold change (FC) [1] | Activity [3] | Activity [4] | further results
O=c1cc(-c2ccc(OCCOCCN(CCOCCOc3ccc(-c4cc(=O)c5ccccc5o4)cc3)Cc3ccccc3)cc2)oc2ccccc12 | 68 | – | – | –
O=c1cc(-c2ccc(OCCOCCNCc3ccc(C4(C(F)(F)F)N=N4)cc3)cc2)oc2ccccc12 | 56.3 | – | – | Activity [2]: Active
C#CCN(CCOCCOc1ccc(-c2cc(=O)c3ccccc3o2)cc1)Cc1ccc(C2(C(F)(F)F)N=N2)cc1 | 2.3 | Not Active | Not Active | –
O=c1cc(-c2ccc(OCCOCCN(Cc3ccc(C4(C(F)(F)F)N=N4)cc3)Cc3ccc(C4(C(F)(F)F)N=N4)cc3)cc2)oc2ccccc12 | 0.8 | – | – | –
C#CCOc1cccc2oc(-c3ccc(OCCOCCNCc4ccc(C5(C(F)(F)F)N=N5)cc4)cc3)cc(=O)c12 | 92.6 | Active | Not Active | Activity [2]: Active; Activity [5]: Dose-Dependent Effect; Activity [6]: Not Active; Activity [7]: Active; Activity [8]: Not Active; Activity [9]: Active; Activity [10]: Not Active; Activity [11]: Active; Activity [12]: Active
C#CCNc1cc(C)cc2c(=O)cc(-c3ccc(OCCOCCNCc4ccc(C5(C(F)(F)F)N=N5)cc4)cc3)oc12 | 0.5 | Not Active | Not Active | –
[N-]=[N+]=NCc1cc(CNCCOCCOc2ccc(-c3cc(=O)c4ccccc4o3)cc2)cc(N=[N+]=[N-])c1 | 61.7 | Active | Not Active | Activity [2]: Active

Second part, led by results:

fold change (FC) [1] | Activity [3] | Activity [4] | SMILES | further results
11 | – | – | O=c1cc(-c2ccc(OCCOCCOCCOCCOc3ccc(-c4cc(=O)c5c(O)cc(O)cc5o4)cc3)cc2)oc2cc(O)cc(O)c12 | –
28 | – | – | O=c1cc(-c2ccc(OCCOCCOCCOCCOc3ccc(-c4cc(=O)c5ccccc5o4)cc3)cc2)oc2ccccc12 | –
0.4 | – | – | C#CCNc1cc(C)cc2c(=O)cc(-c3ccc(OCCOCCN(Cc4ccc(C5(C(F)(F)F)N=N5)cc4)Cc4ccc(C5(C(F)(F)F)N=N5)cc4)cc3)oc12 | –
1 | – | – | O=c1cc(-c2ccc(O)cc2)oc2cc(O)cc(O)c12 [APIGENIN] | –
